The record followed here is PubChem BioAssay AID248 (DTP/NCI, 2004).

In this experiment the test system is L1210 leukemia ip in BDF1 mice, survival T/C. In words: NCI In Vivo Anticancer Drug Screen. Data for tumor model L1210 Leukemia (intraperitoneal) in B6D2F1 (BDF1) mice. Conditions: endpoint: mean survival time, higher = longer survival. In short, it runs like this: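 Tumor cells were implanted, animals were treated, and survival was followed. The result divides the treated measurement by the vehicle-control measurement.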

Where [1] appears, read: dose: 100.0 mg/kg/injection, schedule: Q01DX001 (ip), vehicle: carboxymethylcellulose (CMC).
Setting [2] is: dose: 100.0 mg/kg/injection, schedule: Q04DX003 (ip), vehicle: carboxymethylcellulose (CMC).
Where [3] appears, read: dose: 200.0 mg/kg/injection, schedule: Q01DX001 (ip), vehicle: carboxymethylcellulose (CMC).
[4] abbreviates: dose: 200.0 mg/kg/injection, schedule: Q04DX003 (ip), vehicle: carboxymethylcellulose (CMC).
Where [5] appears, read: dose: 100.0 mg/kg/injection, schedule: Q01DX009 (ip), vehicle: saline.
[6] abbreviates: dose: 400.0 mg/kg/injection, schedule: Q01DX009 (ip), vehicle: saline.
The mark [7] stands for this setting: dose: 100.0 mg/kg/injection, schedule: Q04DX003 (ip), vehicle: saline.
The mark [8] stands for this setting: dose: 200.0 mg/kg/injection, schedule: Q04DX003 (ip), vehicle: saline.
The mark [9] stands for this setting: dose: 400.0 mg/kg/injection, schedule: Q04DX003 (ip), vehicle: saline.
The mark [10] stands for this setting: dose: 400.0 mg/kg/injection, schedule: Q01DX001 (ip), vehicle: carboxymethylcellulose (CMC).
Setting [11] is: dose: 100.0 mg/kg/injection, schedule: Q01DX009 (ip), vehicle: saline with Tween-80.
Setting [12] is: dose: 100.0 mg/kg/injection, schedule: Q04DX003 (ip), vehicle: saline with Tween-80.
[13] abbreviates: dose: 200.0 mg/kg/injection, schedule: Q01DX009 (ip), vehicle: saline with Tween-80.
[14] abbreviates: dose: 200.0 mg/kg/injection, schedule: Q04DX003 (ip), vehicle: saline with Tween-80.
Where [15] appears, read: dose: 400.0 mg/kg/injection, schedule: Q01DX009 (ip), vehicle: saline with Tween-80.
Setting [16] is: dose: 400.0 mg/kg/injection, schedule: Q04DX003 (ip), vehicle: saline with Tween-80.
[17] abbreviates: dose: 100.0 mg/kg/injection, schedule: Q04DX003 (ip), vehicle: Klucel (hydroxypropylcellulose) (HPC).
Setting [18] is: dose: 75.0 mg/kg/injection, schedule: Q01DX001 (ip), vehicle: saline.

Values joined by “and” are separate entries in the source; they are usually repeats but may differ in a detail not shown here. Equal values may be shown once. Toxic doses and inconclusive results are not listed.

With `Cc1ccc(/C=C/c2ccccn2)cc1`, the T/C by setting is: (dose: 50.0 mg/kg/injection, schedule: Q01DX001 (ip), vehicle: carboxymethylcellulose (CMC)) 100 % of control; (dose: 50.0 mg/kg/injection, schedule: Q04DX003 (ip), vehicle: carboxymethylcellulose (CMC)) 105 % of control; under setting [1], 100 % of control; (dose: 100.0 mg/kg/injection, schedule: Q01DX009 (ip), vehicle: carboxymethylcellulose (CMC)) 100 % of control and 90 % of control; (dose: 100.0 mg/kg/injection, schedule: Q04DX002 (ip), vehicle: carboxymethylcellulose (CMC)) 98 % of control and 107 % of control; under setting [2], 110 % of control. In addition, the T/C was 100 % of control under setting [3]; 93 % of control and 108 % of control (dose: 200.0 mg/kg/injection, schedule: Q01DX009 (ip), vehicle: carboxymethylcellulose (CMC)); 97 % of control and 113 % of control (dose: 200.0 mg/kg/injection, schedule: Q04DX002 (ip), vehicle: carboxymethylcellulose (CMC)); 96 % of control under setting [4]; 98 % of control and 90 % of control (dose: 400.0 mg/kg/injection, schedule: Q04DX002 (ip), vehicle: carboxymethylcellulose (CMC)).

In the case of `CCCCCCC(C)OC(=O)CCCc1ccc(N(CCCl)CCCl)cc1` (configuration not stated), the T/C is 122 % of control (dose: 50.0 mg/kg/injection, schedule: Q01DX009 (ip), vehicle: saline); 116 % of control under setting [5]; 100 % of control under setting [6].

Consider `Cc1ccc(C)c(-n2c(C)nc3ccccc3c2=O)c1`, for which the T/C runs as follows: (dose: 100.0 mg/kg/injection, schedule: Q01DX009 (ip), vehicle: Klucel (hydroxypropylcellulose) (HPC)) 86 % of control; (dose: 200.0 mg/kg/injection, schedule: Q01DX009 (ip), vehicle: Klucel (hydroxypropylcellulose) (HPC)) 100 % of control; (dose: 400.0 mg/kg/injection, schedule: Q01DX009 (ip), vehicle: Klucel (hydroxypropylcellulose) (HPC)) 91 % of control.

For the compound `CC1=C(C)C2(C)C(C)(O)C(C)(O)C12C` (configuration not stated), the T/C (dose: 75.0 mg/kg/injection, schedule: Q01DX001 (ip), vehicle: acetone) is 97 % of control; the T/C (dose: 75.0 mg/kg/injection, schedule: Q04DX003 (ip), vehicle: saline with Tween-80) is 87 % of control; the T/C (dose: 150.0 mg/kg/injection, schedule: Q01DX001 (ip), vehicle: acetone) was 102 % of control; the T/C (dose: 300.0 mg/kg/injection, schedule: Q01DX001 (ip), vehicle: acetone) is 102 % of control.

For `Cc1ccc(N)cc1Cl`, the T/C is, setting by setting: (dose: 100.0 mg/kg/injection, schedule: Q04DX003 (ip), vehicle: alcohol) 97 % of control; (dose: 200.0 mg/kg/injection, schedule: Q04DX003 (ip), vehicle: alcohol) 102 % of control; (dose: 400.0 mg/kg/injection, schedule: Q04DX003 (ip), vehicle: alcohol) 88 % of control.

In the case of `COc1ccc(CCN=C(c2ccccc2)c2ccccc2)cc1OC`, the T/C was 94 % of control under setting [7], 94 % of control under setting [8] and 97 % of control under setting [9].

In the case of `CC(C)(C)O[Si](C)(C)CCl`, the T/C is, setting by setting: under setting [1], 92 % of control; under setting [3], 92 % of control; under setting [10], 92 % of control.

For the compound `C1=CC2C=CC1C2`, the T/C was 97 % of control under setting [11]; 89 % of control under setting [12]; 92 % of control under setting [13]; 92 % of control under setting [14]; 89 % of control under setting [15]; 89 % of control under setting [16].

`CN(C)c1ccc(/C=N/Nc2nnc(N/N=C/c3ccc(N(C)C)cc3Cl)c3ccccc23)c(Cl)c1`: the T/C is, setting by setting: (dose: 50.0 mg/kg/injection, schedule: Q01DX001 (ip), vehicle: saline) 102 % of control; (dose: 100.0 mg/kg/injection, schedule: Q01DX001 (ip), vehicle: saline) 100 % of control; (dose: 200.0 mg/kg/injection, schedule: Q01DX001 (ip), vehicle: saline) 100 % of control; (dose: 400.0 mg/kg/injection, schedule: Q01DX001 (ip), vehicle: saline) 92 % of control.

For the compound `CCC(NC(=O)CN)C(=O)O` (configuration not stated), the T/C by setting is: under setting [5], 100 % of control and 107 % of control; (dose: 100.0 mg/kg/injection, schedule: Q04DX002 (ip), vehicle: saline) 97 % of control and 101 % of control and 91 % of control; under setting [7], 93 % of control; (dose: 200.0 mg/kg/injection, schedule: Q01DX009 (ip), vehicle: saline) 102 % of control and 92 % of control; (dose: 200.0 mg/kg/injection, schedule: Q04DX002 (ip), vehicle: saline) 97 % of control and 105 % of control; under setting [8], 94 % of control. The T/C is, setting by setting: under setting [6], 102 % of control and 111 % of control; (dose: 400.0 mg/kg/injection, schedule: Q04DX002 (ip), vehicle: saline) 108 % of control and 100 % of control and 118 % of control; under setting [9], 98 % of control.

For `CC1(C)Oc2c(ccc(O)c2CN2CCOCC2)C2=C1CCCC2`, the T/C is 93 % of control under setting [1], 96 % of control under setting [3] and 91 % of control under setting [10].

As for `CCCCN1C(=O)CSC1=S`, the T/C (dose: 100.0 mg/kg/injection, schedule: Q04DX002 (ip), vehicle: Klucel (hydroxypropylcellulose) (HPC)) was 97 % of control; the T/C (dose: 200.0 mg/kg/injection, schedule: Q04DX002 (ip), vehicle: Klucel (hydroxypropylcellulose) (HPC)) was 113 % of control; the T/C (dose: 400.0 mg/kg/injection, schedule: Q04DX002 (ip), vehicle: Klucel (hydroxypropylcellulose) (HPC)) is 100 % of control.

As for `CCCCCCCCCCCCCCCCCCCCCCCCC`, the T/C was 91 % of control under setting [17]; 89 % of control (dose: 200.0 mg/kg/injection, schedule: Q04DX003 (ip), vehicle: Klucel (hydroxypropylcellulose) (HPC)); 87 % of control (dose: 400.0 mg/kg/injection, schedule: Q04DX003 (ip), vehicle: Klucel (hydroxypropylcellulose) (HPC)).

`COc1cc2c(cc1OC)-c1c([O-])c3cc(OC)c(OC)cc3n[n+]1CC2`: the T/C under setting [18] is 98 % of control; the T/C (dose: 150.0 mg/kg/injection, schedule: Q01DX001 (ip), vehicle: saline) was 86 % of control; the T/C (dose: 300.0 mg/kg/injection, schedule: Q01DX001 (ip), vehicle: saline) was 89 % of control.

`COc1ccc2c(c1)CC/C(=C\c1ccccn1)C2=O`: the T/C was 98 % of control under setting [2]; 97 % of control under setting [4]; 98 % of control (dose: 400.0 mg/kg/injection, schedule: Q04DX003 (ip), vehicle: carboxymethylcellulose (CMC)).

For the compound `COC(=O)C(CSCSC)NC(=O)/C=C/c1ccccc1C` (configuration not stated), the T/C is 101 % of control under setting [11]; 95 % of control under setting [12]; 101 % of control under setting [13]; 93 % of control under setting [14]; 113 % of control under setting [15]; 97 % of control under setting [16].

For `CCC1(Cc2ccsc2)C(=O)NC(=O)NC1=O`, the T/C by setting is: under setting [1], 103 % of control; under setting [3], 94 % of control; under setting [10], 100 % of control.

As to `COc1ccc(/C=C(/C(=O)c2ccc(OCCN3CCCC3)cc2)c2ccccc2)cc1OC`, the T/C is 101 % of control (dose: 100.0 mg/kg/injection, schedule: Q04DX003 (sc), vehicle: olive oil, sesame oil, peanut oil); 98 % of control (dose: 200.0 mg/kg/injection, schedule: Q04DX003 (sc), vehicle: olive oil, sesame oil, peanut oil); 97 % of control (dose: 400.0 mg/kg/injection, schedule: Q04DX003 (sc), vehicle: olive oil, sesame oil, peanut oil).

As for `NC(=O)c1cc2ccccc2[n+](Cc2ccc(F)cc2)c1`, the T/C under setting [18] is 107 % of control.

Turning to `CS(=O)(=O)OCCN(CCOS(C)(=O)=O)c1ccc(C=Nc2ccc3ccccc3c2)cc1`, the T/C (dose: 20.0 mg/kg/injection, schedule: Q04DX003 (ip), vehicle: Klucel (hydroxypropylcellulose) (HPC)) is 110 % of control; the T/C (dose: 40.0 mg/kg/injection, schedule: Q04DX003 (ip), vehicle: Klucel (hydroxypropylcellulose) (HPC)) was 117 % of control; the T/C (dose: 53.3 mg/kg/injection, schedule: Q04DX003 (ip), vehicle: Klucel (hydroxypropylcellulose) (HPC)) was 152 % of control; the T/C under setting [17] is 120 % of control; the T/C (dose: 120.0 mg/kg/injection, schedule: Q04DX003 (ip), vehicle: Klucel (hydroxypropylcellulose) (HPC)) was 95 % of control and 100 % of control.
